Assay results reported in patent US20080207716A1, “Formulations and Dosing Regiment for Ppar-Alpha Modulators” (Eli Lilly and Company Patent Division, priority 2005, published 2008).

Tests used:
Format in all cases: in vivo, human
[1] = tested on: healthy obese men and women; assay: Meal tolerance test in the single-dose (SDSS) portion of the clinical study; conditions: for Triglyceride AUEC(24-37) geometric mean (95% CI): 24-37 h post dose, placebo 44.6
Source text: (§1) A single-blinded, single- (SDSS) and multiple-dose (MDSS), placebo-controlled, dose-escalation study is designed to evaluate the safety, pharmacokinetics, and pharmacodynamics of orally administered study drug in healthy obese men and women. Three different groups of subjects complete a one-step escalation of the study drug dose within Periods 1 and 2 (SDSS). […] The decision to escalate to higher doses is based on the safety assessment of preceding doses. The minimum time between dose escalations within Periods 1 and 2 is one week.
(§2) Safety is assessed throughout the study by physical examination, adverse event monitoring, electrocardiograms, clinical laboratory tests, and vital sign measurements. Pharmacodynamic evaluation includes a postprandial lipid response during the single-dose safety portion. During the multiple-dose safety study, the pharmacodynamic evaluation includes an oral glucose tolerance test, a fasting lipid panel and a postprandial lipid test. The static lipid panel included triglycerides, total cholesterol, low-density lipoprotein cholesterol [LDL-C], high-density lipoprotein cholesterol [HDL-C], Apoliproteins A1, A2, B, and C3 for cholesterol metabolism. C-reactive protein (CRP) and adiponectin are measured as biomarkers for inflammation and peroxisome proliferated agonist receptor (PPAR) gamma activity, respectively. The dynamic lipid tests include post-prandial measurements of glucose and triglycerides.
A meal tolerance test (MTT) was performed from 24 to 37 hours after each single dose during the SDSS portion of a clinical trial conducted substantially as described herein by Example 1 using LY518674 as the study drug. The data are analyzed by calculating an area under the concentration-time curve for triglycerides, nonesterified fatty acids and glucose over the postprandial periods from breakfast to lunch (area under the effect curve [AUEC{24-28}]), after lunch (AUEC[28-37]), and the entire test period (AUEC[24-37]).

[2] = tested on: healthy obese men and women; assay: Safety and tolerability assessment, SDSS clinical study; conditions: single oral doses 30 and 60 mg
Procedure: (§3) A single-blinded, single- (SDSS) and multiple-dose (MDSS), placebo-controlled, dose-escalation study is designed to evaluate the safety, pharmacokinetics, and pharmacodynamics of orally administered study drug in healthy obese men and women. Three different groups of subjects complete a one-step escalation of the study drug dose within Periods 1 and 2 (SDSS). The design includes a total of 6 active doses (0.1, 1, 10, 30, 60, and 100 mg) to be tested. The decision to escalate to higher doses is based on the safety assessment of preceding doses. The minimum time between dose escalations within Periods 1 and 2 is one week.
as §2, with “The static lipid panel included triglycerides, total cholesterol, low-density lipoprotein cholesterol [LDL-C], high-density lipoprotein cholesterol [HDL-C], Apoliproteins A1, A2, B, and C3 for cholesterol metabolism.” left out, “The dynamic lipid tests include post-prandial measurements of glucose and triglycerides.” left out

[3] = Pharmacokinetics after oral single- and multiple-dose administration
Procedure: as §3
(§4) Each of the 3 groups of subjects consist of approximately 9 subjects in a 2:1 ratio of active treatment to placebo, where the order of placebo administration is randomized across both the SDSS and MDSS portions of the study. All 3 groups of subjects shall be scheduled to participate in both SDSS and MDSS portions. However, the SDSS portion is completed and analyzed several months prior to beginning the MDSS (Period 3/4). The 45-day MDSS portion of the original study is designed to test 4 active doses (0.025, 0.1, 1 and 10 mg) administered daily for the first 14 days of the study. The MDSS portion recruits subjects to form 4 groups of subjects. Approximately 36 subjects (9 per dose group) are enrolled into the MDSS portion of the study.
The median time at maximal concentration (tmax) was approximately 0.5 to 1 hour. The exposure appeared dose-proportional within the studied range.

[4] = tested on: healthy obese men and women; assay: Lipid pharmacodynamics (LDL-C, ApoB, ApoC), SDSS clinical study
Source text: as §1
as §2, with “The dynamic lipid tests include post-prandial measurements of glucose and triglycerides.” left out

healthy obese subjects = assay: Fasting lipid panel, MDSS clinical study (14 days daily dosing, 30 day follow up)
Source text: FIG. 1. FIG. 1 illustrates the time profile of percentage change from baseline for LDL-C following the administration of daily oral doses of LY518674 over 14 days and 30 day follow up afterwards, in healthy obese subjects in MDSS of a study conducted substantially as described by Example 1.
as §4, §2

Cc1ccc(Cn2nc(CCCc3ccc(OC(C)(C)C(=O)O)cc3)[nH]c2=O)cc1 [LY518674, Propanoic Acid, 2-[4-[3-[2,5-dihydro-1-[(4-methylphenyl)methyl]-5-oxo-1H-1,2,4-triazol-3-yl]propyl]phenoxy]-2-methyl-]
Lowest dose providing a pharmaceutically desirable effect ([1]; single dose study): 100 µg | Effect on triglyceride (TG) AUEC ([1]; single dose, meal tolerance test 24 to 37 hours post dose): rapid and profound reduction | Dose at which maximum TG AUEC reduction is approached ([1]; single oral dose): approximately 1 mg | Triglyceride AUEC(24-37) geometric mean (95% CI) ([1]; single oral dose 0.01 mg): 37.8 (31.2, 45.8) mmol · hr/L | Triglyceride AUEC(24-37) ratio of geometric means, dose vs. placebo (95% CI) ([1]; single oral dose 0.01 mg, p 0.083): 0.85 (0.70, 1.02) [0.083] | Triglyceride AUEC(24-37) geometric mean (95% CI) ([1]; single oral dose 0.1 mg): 27.6 (23.0, 33.2) mmol · hr/L | Triglyceride AUEC(24-37) ratio of geometric means, dose vs. placebo (95% CI) ([1]; single oral dose 0.1 mg, p <.001): 0.62 (0.52, 0.74) [<.001*] | Triglyceride AUEC(24-37) geometric mean (95% CI) ([1]; single oral dose 1 mg): 23.9 (20.0, 28.6) mmol · hr/L | Triglyceride AUEC(24-37) ratio of geometric means, dose vs. placebo (95% CI) ([1]; single oral dose 1 mg, p <.001): 0.54 (0.45, 0.64) [<.001*] | Triglyceride AUEC(24-37) geometric mean (95% CI) ([1]; single oral dose 10 mg): 24.3 (20.1, 29.5) mmol · hr/L | Triglyceride AUEC(24-37) ratio of geometric means, dose vs. placebo (95% CI) ([1]; single oral dose 10 mg, p <.001): 0.55 (0.45, 0.67) [<.001*] | Triglyceride AUEC(24-37) geometric mean (95% CI) ([1]; single oral dose 30 mg): 20.0 (16.3, 24.5) mmol · hr/L | Triglyceride AUEC(24-37) ratio of geometric means, dose vs. placebo (95% CI) ([1]; single oral dose 30 mg, p <.001): 0.45 (0.37, 0.54) [<.001*] | Triglyceride AUEC(24-37) geometric mean (95% CI) ([1]; single oral dose 60 mg): 25.2 (20.6, 30.7) mmol · hr/L | Triglyceride AUEC(24-37) ratio of geometric means, dose vs. placebo (95% CI) ([1]; single oral dose 60 mg, p <.001): 0.56 (0.46, 0.69) [<.001*] | Tolerability finding prohibiting administration of higher doses [2]: Gastrointestinal intolerance | half-life ([3]; both sexes, human, in vivo, oral, as stated in MDSS results): ~10 h | half-life ([3]; both sexes, human, in vivo, oral, as stated in SDSS/PK results): < 10 h | Tmax ([3]; both sexes, human, in vivo, oral, healthy obese subjects, read-out: Median time at maximal concentration (tmax)): 0.5 to 1 h | Time to steady-state exposure ([3]; daily oral dosing): ≤ 2 days | Mean accumulation ratio ([3]; daily oral dosing, steady state): no more than 1.35 | Absorption after oral administration ([3]; healthy obese subjects): rapidly absorbed | Pharmacokinetics following single- versus multiple-dose administration ([3]; in vivo): No differences | Exposure versus dose ([3]; within the studied dose range): dose-proportional | ApoB and ApoC change ([4]; SDSS, oral): decreased in a fashion similar to that seen for LDL-C changes | LDL-C change ([4]; single oral dose 0.01 mg): LDL-C reduction consistent with the reduction observed at the higher doses | Lowest dose providing a pharmaceutically desirable effect (healthy obese subjects; MDSS study): 25 µg | Maintenance of pharmacological effect after dosing stopped (healthy obese subjects; after 14 days daily dosing): ~14 days | Time for all parameters to return to baseline after cessation of dosing (healthy obese subjects; after 14 days daily dosing): ≤ 2 weeks | LDL-C change (healthy obese subjects; daily oral doses 0.025, 0.1, 1 and 10 mg for 14 days, all doses similar magnitude): dramatically reduced
